Assay results published in PubChem BioAssay AID248 (DTP/NCI, 2004).
Where “and” joins values, the source holds several entries; their conditions need not be identical. Equal entries are not always repeated. Inconclusive results and toxic doses are left out. Rule as the data show it: active = T/C of 150% or more; inactive = T/C below 125%.

System: L1210 leukemia ip in BDF1 mice, survival T/C
Test: NCI In Vivo Anticancer Drug Screen. Data for tumor model L1210 Leukemia (intraperitoneal) in B6D2F1 (BDF1) mice
Conditions: endpoint: mean survival time, higher = longer survival
Procedure, shortened: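 Antitumor effect is assessed in tumor-bearing animals. Survival in the compound arm is compared with a vehicle-dosed control arm and expressed as their quotient.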

[1] = dose: 100.0 mg/kg/injection, schedule: Q01DX009 (ip), vehicle: saline
[2] = dose: 100.0 mg/kg/injection, schedule: Q04DX003 (ip), vehicle: saline
[3] = dose: 200.0 mg/kg/injection, schedule: Q01DX009 (ip), vehicle: saline
[4] = dose: 200.0 mg/kg/injection, schedule: Q04DX003 (ip), vehicle: saline
[5] = dose: 400.0 mg/kg/injection, schedule: Q01DX009 (ip), vehicle: saline
[6] = dose: 400.0 mg/kg/injection, schedule: Q04DX003 (ip), vehicle: saline
[7] = dose: 100.0 mg/kg/injection, schedule: Q04DX003 (ip), vehicle: Klucel (hydroxypropylcellulose) (HPC)
[8] = dose: 100.0 mg/kg/injection, schedule: Q01DX009 (ip), vehicle: Klucel (hydroxypropylcellulose) (HPC)
[9] = dose: 200.0 mg/kg/injection, schedule: Q01DX009 (ip), vehicle: Klucel (hydroxypropylcellulose) (HPC)
[10] = dose: 400.0 mg/kg/injection, schedule: Q01DX009 (ip), vehicle: Klucel (hydroxypropylcellulose) (HPC)
[11] = dose: 100.0 mg/kg/injection, schedule: Q01DX001 (ip), vehicle: carboxymethylcellulose (CMC)
[12] = dose: 200.0 mg/kg/injection, schedule: Q01DX001 (ip), vehicle: carboxymethylcellulose (CMC)
[13] = dose: 400.0 mg/kg/injection, schedule: Q01DX001 (ip), vehicle: carboxymethylcellulose (CMC)
[14] = dose: 100.0 mg/kg/injection, schedule: Q01DX001 (ip), vehicle: acetone
[15] = dose: 200.0 mg/kg/injection, schedule: Q01DX001 (ip), vehicle: acetone
[16] = dose: 100.0 mg/kg/injection, schedule: Q01DX009 (ip), vehicle: saline with Tween-80
[17] = dose: 200.0 mg/kg/injection, schedule: Q01DX009 (ip), vehicle: saline with Tween-80
[18] = dose: 400.0 mg/kg/injection, schedule: Q01DX009 (ip), vehicle: saline with Tween-80
[19] = dose: 100.0 mg/kg/injection, schedule: Q01DX001 (ip), vehicle: saline
[20] = dose: 200.0 mg/kg/injection, schedule: Q01DX001 (ip), vehicle: saline
[21] = dose: 400.0 mg/kg/injection, schedule: Q01DX001 (ip), vehicle: saline

Measured: T/C

Cc1ccc(S(=O)(=O)N(SSN(c2ccccc2)S(=O)(=O)c2ccc(C)cc2)c2ccccc2)cc1
inactive: dose: 100.0 mg/kg/injection, schedule: Q04DX002 (ip), vehicle: carboxymethylcellulose (CMC) 95 % of control and 98 % of control | dose: 200.0 mg/kg/injection, schedule: Q04DX002 (ip), vehicle: carboxymethylcellulose (CMC) 95 % of control and 101 % of control | dose: 400.0 mg/kg/injection, schedule: Q04DX002 (ip), vehicle: carboxymethylcellulose (CMC) 95 % of control and 106 % of control

CC1=CC(=O)OC(C)(C)O1
inactive: [1] 103 % of control | [2] 100 % of control | [3] 101 % of control | [4] 91 % of control | [5] 110 % of control | [6] 98 % of control

COc1cc(C=Nc2ccccc2)cc(OC)c1OC
inactive: [7] 104 % of control | dose: 200.0 mg/kg/injection, schedule: Q04DX003 (ip), vehicle: Klucel (hydroxypropylcellulose) (HPC) 102 % of control | dose: 400.0 mg/kg/injection, schedule: Q04DX003 (ip), vehicle: Klucel (hydroxypropylcellulose) (HPC) 95 % of control

S=C(N/N=C/C=C/c1ccccc1)NC1CC2CC1C1C=CCC21 (centres undefined)
inactive: [8] 94 % of control | [9] 117 % of control | [10] 88 % of control

Nc1csc(N)n1
inactive: dose: 75.0 mg/kg/injection, schedule: Q04DX003 (ip), vehicle: saline 107 % of control | [2] 97 % of control | dose: 150.0 mg/kg/injection, schedule: Q04DX003 (ip), vehicle: saline 105 % of control | [4] 96 % of control | dose: 300.0 mg/kg/injection, schedule: Q04DX003 (ip), vehicle: saline 94 % of control | [6] 103 % of control

O=[N+]([O-])c1ccc2c(c1)/C(=N\O)c1cc(F)ccc1-2
inactive: [11] 103 % of control | [12] 105 % of control | [13] 98 % of control

CCN(CC)CCCC(C)Nc1c2ccccc2nc2c(Cl)cccc12 (centres undefined)
inactive: dose: 20.0 mg/kg/injection, schedule: Q01DX Z (ip), vehicle: methylcellulose (MC) 100 % of control and 86 % of control | dose: 30.0 mg/kg/injection, schedule: Q01DX Z (ip), vehicle: methylcellulose (MC) 92 % of control and 87 % of control | dose: 45.0 mg/kg/injection, schedule: Q01DX Z (ip), vehicle: methylcellulose (MC) 95 % of control and 101 % of control | dose: 67.0 mg/kg/injection, schedule: Q01DX Z (ip), vehicle: methylcellulose (MC) 91 % of control | [7] 102 % of control

COC1OC(COC(=O)c2ccc([N+](=O)[O-])cc2)C(OC(=O)c2ccc([N+](=O)[O-])cc2)C1OCc1ccccc1 (centres undefined)
inactive: dose: 75.0 mg/kg/injection, schedule: Q01DX001 (ip), vehicle: other 86 % of control | dose: 150.0 mg/kg/injection, schedule: Q01DX001 (ip), vehicle: other 86 % of control | dose: 300.0 mg/kg/injection, schedule: Q01DX001 (ip), vehicle: other 86 % of control and 89 % of control

CC1(C)C2CCC(OC(=O)c3ccc([N+](=O)[O-])cc3)C1C2 (centres undefined)
inactive: dose: 50.0 mg/kg/injection, schedule: Q01DX001 (ip), vehicle: carboxymethylcellulose (CMC) 102 % of control | [11] 102 % of control | [12] 93 % of control | [13] 87 % of control

CCCCc1ccc(-n2cnc3c(=O)[nH]c(N)nc32)cc1
inactive: dose: 100.0 mg/kg/injection, schedule: Q04DX003 (ip), vehicle: saline with Tween-80 88 % of control | dose: 200.0 mg/kg/injection, schedule: Q04DX003 (ip), vehicle: saline with Tween-80 97 % of control

CCCCCCCC(=O)NCCCC
inactive: [8] 105 % of control | [2] 99 % of control | [9] 95 % of control | [4] 101 % of control | [10] 109 % of control | [6] 99 % of control

Cc1cc([N+](=O)[O-])c(C)c([N+](=O)[O-])c1Cl
inactive: [14] 101 % of control | [1] 90 % of control | [2] 95 % of control | [15] 97 % of control | [3] 95 % of control | [4] 103 % of control | dose: 400.0 mg/kg/injection, schedule: Q01DX001 (ip), vehicle: acetone 95 % of control | [5] 88 % of control | [6] 98 % of control

O=[N+]([O-])c1ccc(N=C/C=C/c2ccccc2)cc1
inactive: [16] 88 % of control | [17] 94 % of control | [18] 104 % of control

C1=NN=C2C=C3CCc4ccccc4C3CC12 (centres undefined)
inactive: [14] 93 % of control | [15] 96 % of control

O=c1ccc2cccc(O)c2[nH]1
inactive: [19] 97 % of control | [20] 94 % of control | [21] 100 % of control

O=C(CC(=O)C(F)(F)F)c1ccccc1.O=C(CC(=O)C(F)(F)F)c1ccccc1.[Cu]
inactive: dose: 6.25 mg/kg/injection, schedule: Q01DX009 (ip), vehicle: saline with Tween-80 95 % of control | dose: 6.25 mg/kg/injection, schedule: Q04DX003 (ip), vehicle: saline with Tween-80 91 % of control | dose: 12.5 mg/kg/injection, schedule: Q01DX009 (ip), vehicle: saline with Tween-80 95 % of control | dose: 12.5 mg/kg/injection, schedule: Q04DX003 (ip), vehicle: saline with Tween-80 92 % of control | dose: 25.0 mg/kg/injection, schedule: Q01DX009 (ip), vehicle: saline with Tween-80 92 % of control | dose: 25.0 mg/kg/injection, schedule: Q04DX003 (ip), vehicle: saline with Tween-80 91 % of control

CCCCOC(=O)C1OC1c1ccccc1 (centres undefined)
inactive: [16] 88 % of control | dose: 100.0 mg/kg/injection, schedule: Q04DX002 (ip), vehicle: saline with Tween-80 90 % of control | [17] 95 % of control | dose: 200.0 mg/kg/injection, schedule: Q04DX002 (ip), vehicle: saline with Tween-80 88 % of control | [18] 95 % of control | dose: 400.0 mg/kg/injection, schedule: Q04DX002 (ip), vehicle: saline with Tween-80 102 % of control

C1CN(CC2CO2)CCO1 (centres undefined)
inactive: [1] 105 % of control | [3] 117 % of control | [5] 105 % of control

O=C1OC2C(I)C3CC1C2C3 (centres undefined)
inactive: dose: 50.0 mg/kg/injection, schedule: Q01DX009 (ip), vehicle: saline with Tween-80 96 % of control | [16] 95 % of control

Cc1c(C(=O)O)cc2n(c1=O)Cc1cc3ccccc3nc1-2
inactive: [1] 90 % of control | [2] 95 % of control | [3] 86 % of control | [4] 106 % of control | [6] 98 % of control

CCCCC(=O)N/N=C/c1ccc(OCC)c(OCC)c1
inactive: [19] 102 % of control | [20] 98 % of control | [21] 102 % of control

COc1ccc(/C=N/NC(=O)Nc2ccccc2)cc1OC
inactive: [8] 98 % of control | [9] 89 % of control | [10] 93 % of control

N=c1ccn(C(=O)C2=Cc3cc(Cl)ccc3OC2)cc1
inactive: [16] 92 % of control | [17] 102 % of control

COC(=O)C1=C[N+](C)(C)N=C1[O-]
inactive: [1] 97 % of control | [3] 94 % of control | [5] 93 % of control

CCCCP(=O)(CCCC)C1CCCC1
inactive: dose: 100.0 mg/kg/injection, schedule: Q01DX001 (ip), vehicle: saline with Tween-80 103 % of control | dose: 200.0 mg/kg/injection, schedule: Q01DX001 (ip), vehicle: saline with Tween-80 100 % of control | dose: 400.0 mg/kg/injection, schedule: Q01DX001 (ip), vehicle: saline with Tween-80 90 % of control

CCC(C1CCC(O)CC1)C(CC)C1CCC(C2=CC(=O)OC2)CC1 (centres undefined)
inactive: dose: 25.0 mg/kg/injection, schedule: Q04DX003 (ip), vehicle: saline 100 % of control | dose: 50.0 mg/kg/injection, schedule: Q04DX003 (ip), vehicle: saline 94 % of control | [2] 94 % of control

Cc1ccc([N+](=O)[O-])cc1NC(=O)NCc1cccnc1
inactive: [8] 95 % of control | [9] 87 % of control | [10] 92 % of control

c1cc[c]([Sn]([c]2ccccc2)([CH]2CCCCC2)[CH]2CCCCC2)cc1
inactive: dose: 75.0 mg/kg/injection, schedule: Q04DX002 (ip), vehicle: gum acacia 96 % of control | dose: 150.0 mg/kg/injection, schedule: Q04DX002 (ip), vehicle: gum acacia 101 % of control | dose: 300.0 mg/kg/injection, schedule: Q04DX002 (ip), vehicle: gum acacia 96 % of control

c1ccc2c(C3CSC3)nncc2c1
inactive: [19] 97 % of control | [20] 97 % of control | [21] 94 % of control
